Assay results published in patent publication US8513286B2, “Iminipyridine derivatives and their uses as microbiocides” (Syngenta Crop Protection LLC, priority 2007, dated 2013).

What was measured:
Type in all cases: in vivo
[1] = test system: Erysiphe graminis f.sp. tritici; assay: Erysiphe graminis f.sp. tritici, wheat powdery mildew, preventative test on wheat leaf segments; conditions: Blumeria graminis, foliar, 168 h, application rate 200 ppm, assessed 7 days after inoculation, 0=no control, 100%=complete control, read-out: preventive fungicidal activity, percent efficacy relative to untreated infected control
Description: Erysiphe graminis f.sp. tritici: Wheat Powdery Mildew, Preventative Test Erysiphe graminis f.sp. tritici (Wheat powdery mildew): Wheat leaf segments are placed on agar in multiwell plates (24-well format) and sprayed with the formulated (2% Dimethylsulfoxid, 0,025% Tween 20) test solutions. After drying, the leaf disks are inoculated with spores of the fungus (50 conidia/mm2). After appropriate incubation, the preventive fungicidal activity of a compound is assessed 7 days after inoculation as disease damage on the leaf disks and calculated as percent efficacy relative to untreated infected control. (0=no control of Erysiphe graminis f.sp. tritici, 100%=complete control). In this test, compounds listed in Table P above show good activity.

[2] = test system: Puccinia recondita; assay: Puccinia recondita, brown rust of wheat, preventative test on wheat leaf segments; conditions: foliar, 192 h, application rate 200 ppm, assessed 8 days after inoculation, 0=no control, 100%=complete control, read-out: preventive fungicidal activity, percent efficacy relative to untreated infected control
Description: (§1) Puccinia recondite: Brown Rust of Wheat, Preventative Test Puccinia recondita (Brown rust): Wheat leaf segments are placed on agar in multiwell plates (24-well format) and sprayed with the formulated (2% Dimethylsulfoxid, 0,025% Tween 20) test solutions. After drying, the leaf disks are inoculated with a spore suspension of the fungus (45'000 conidia/ml). After appropriate incubation, the preventive fungicidal activity of a compound is assessed 8 days after inoculation as disease damage on the leaf disks and calculated as percent efficacy relative to untreated infected control (0=no control of Puccinia recondita, 100%=complete control). In this test, compounds listed in Table P above show good activity.

[3] = test system: Puccinia recondita; assay: Puccinia recondita, brown rust of wheat, curative test on wheat leaf segments; conditions: foliar, 192 h, application rate 200 ppm, wheat leaf segments treated one day after inoculation, assessed 8 days after inoculation, 0=no control, 100%=complete control, read-out: curative fungicidal activity, percent efficacy relative to untreated infected control
[4] = test system: Erysiphe graminis f.sp. hordei; assay: Erysiphe graminis f.sp. hordei, powdery mildew of barley, curative test on barley leaf segments; conditions: Blumeria graminis, foliar, 168 h; application rate 200 ppm; barley leaf segments sprayed 24 h after inoculation; assessed 7 days after inoculation; 0=no control, 100%=complete control; read-out: curative fungicidal activity, percent efficacy relative to untreated infected control
Description: Erysiphe graminis f.sp. hordei: Powdery Mildew of Barley, Curative Test Erysiphe graminis f.sp. hordei (Barley powdery mildew): Barley leaf segments are placed on agar in multiwell plates (24-well format). The leaf disks are inoculated with spores of the fungus (120 conidia/mm2). After 24 h the leaf disks are sprayed with the formulated (2% Dimethylsulfoxid, 0,025% Tween 20) test solutions. After appropriate incubation, the curative fungicidal activity of a compound is assessed 7 days after inoculation as disease damage on the leaf disks and calculated as percent efficacy relative to untreated infected control (0=no control of Erysiphe graminis f.sp. hordei, 100%=complete control). In this test, compounds listed in Table P above show good activity.

[5] = test system: Pyrenophora teres; assay: Pyrenophora teres, net blotch of barley, preventative test on barley leaf segments; conditions: foliar, 96 h, application rate 200 ppm, assessed 4 days after inoculation, 0=no control, 100%=complete control, read-out: preventive fungicidal activity, percent efficacy relative to untreated infected control
Description: as §1, with “Pyrenophora teres: Net Blotch” for “Puccinia recondite: Brown Rust”, “Barley,” for “Wheat,”, “Method Description Pyrenophora teres (Net blotch): Barley” for “Puccinia recondita (Brown rust): Wheat”, “(25'000” for “(45'000”, “4” for “8”, “Pyrenophora teres,” for “Puccinia recondita,”

[6] = test system: Botrytis cinerea; assay: Botrytis cinerea, gray mould, preventative test on bean leaf disks; conditions: application rate 200 ppm, assessed 3 days after inoculation, 0=no control, 100%=complete control
Description: (§2) Botrytis cinerea: Gray Mould, Preventative Test Botrytis cinerea (Gray mould): Bean leaf disks are placed on agar in multiwell plates (24-well format) and sprayed with the formulated (2% Dimethylsulfoxid, 0,025% Tween 20) test solutions. After drying, the leaf disks are inoculated with a spore suspension of the fungus (60′000 conidia/ml). After appropriate incubation, the preventive fungicidal activity of a compound is assessed 3 days after inoculation as disease damage on the leaf disks and calculated as percent efficacy relative to untreated infected control. (0=no control of Botrytis cinerea, 100%=complete control). In this test, compounds listed in Table P above show good activity.

[7] = test system: Plasmopara viticola; assay: Plasmopara viticola, downy mildew of grapevine, preventative test on grape vine leaf disks; conditions: application rate 200 ppm, assessed 6 days after inoculation, 0=no control, 100%=complete control
Description: as §2, with “Plasmopara viticola: Downy Mildew of Grapevine,” for “Botrytis cinerea: Gray Mould,”, “Plasmopara viticola (downy mildew of grapevine): Grape vine” for “Botrytis cinerea (Gray mould): Bean”, “(80′000” for “(60′000”, “6” for “3”, “Plasmopara viticola,” for “Botrytis cinerea,”

| SMILES | pest or weed control at 200 ppm [1] | pest or weed control at 200 ppm [2] | pest or weed control at 200 ppm [3] | other results |
| --- | --- | --- | --- | --- |
| CCN(C)/C=N/c1cc(OC)c(Oc2ccc(Cl)c(C(F)(F)F)c2)nc1Br [P.68] | ≥ 50% |  |  |  |
| CCN(C)/C=N/c1cnc(Oc2cccc(C(F)(F)F)c2)c(Br)c1C [P.51] |  | ≥ 50% |  |  |
| CN(C)/C=N/c1ccc(Oc2ccc(Cl)cc2)nc1 [P.22] | ≥ 50% |  |  |  |
| CCN(C)/C=N/c1cc(-c2ccc(F)cc2)c(Oc2ccc(Cl)c(C(F)(F)F)c2)nc1C [P.30] | ≥ 50% |  |  |  |
| CCN(C)/C=N/c1cc(Cl)c(OCCCC(C)C)nc1C#N [P.81] |  |  | ≥ 50% |  |
| CCN(C)/C=N/c1ccc(Oc2ccc(Cl)c(C(F)(F)F)c2)nc1C [P.07] | ≥ 50% | ≥ 50% |  | pest or weed control at 200 ppm [4]: ≥ 50% |
| CCN(C)/C=N/c1cc(Br)c(OCCCC(C)C)nc1C [P.26] | ≥ 50% | ≥ 50% | ≥ 50% |  |
| C#CC(C)N(C)/C=N/c1ccc(Oc2ccc(Cl)cc2Cl)nc1 (stereo not drawn) [P.04] |  |  |  | pest or weed control at 200 ppm [4]: ≥ 50% |
| CCN(C)/C=N/c1cc(Br)c(OCCCC(C)C)nc1OC [P.61] | ≥ 50% | ≥ 50% | ≥ 50% |  |
| CCN(C)/C=N/c1cc(Br)c(Oc2ccc3ccccc3c2)nc1C [P.77] | ≥ 50% | ≥ 50% | ≥ 50% |  |
| CC(C)c1cc(Oc2ccc(Cl)c(Cl)c2)nc(C(C)C)c1/N=C/N(C)C [P.05] |  |  |  | pest or weed control at 200 ppm [5]: ≥ 50% |
| CCN(C)/C=N/c1cc(Br)c(Oc2ccc(Cl)c(C(F)(F)F)c2)nc1C [P.29] | ≥ 50% | ≥ 50% | ≥ 50% | preventive fungicidal activity, percent efficacy relative to untreated infected control [6]: at least 50% |
| CCN(C)/C=N/c1cc(Br)c(OC2CCc3ccccc3C2)nc1C (stereo not drawn) [P.62] | ≥ 50% | ≥ 50% | ≥ 50% | pest or weed control at 200 ppm [5]: ≥ 50% |
| CCN(C)/C=N/c1cnc(Oc2ccc(Cl)c(C(F)(F)F)c2)cc1C [P.11] |  | ≥ 50% |  | pest or weed control at 200 ppm [4]: ≥ 50% |
| Cc1nc(OCCCC(C)C)c(Br)cc1NC(=S)N(C)C(C)C [P.35] | ≥ 50% | ≥ 50% | ≥ 50% |  |
| CCN(C)/C=N/c1cnc(Oc2cccc(C(C)(C)C)c2)c(C)c1 [P.17] |  |  |  | pest or weed control at 200 ppm [4]: ≥ 50% |
| CCN(C)/C=N/c1cc(Br)c(OC2CCc3cc(OC)ccc3C2)nc1C (stereo not drawn) [P.82] | ≥ 50% | ≥ 50% | ≥ 50% |  |
| Cc1cc(/N=C/N(C)C)cnc1Oc1cccc(C(C)(C)C)c1 [P.14] |  |  |  | pest or weed control at 200 ppm [4]: ≥ 50% |
| Cc1cc(/N=C/N(C)c2ccccn2)cnc1Oc1ccc(Cl)c(C(F)(F)F)c1 [P.16] |  |  |  | pest or weed control at 200 ppm [4]: ≥ 50% |
| CCN(C)/C=N/c1ccc(Oc2ccc(Cl)cc2Cl)nc1 [P.01] |  |  |  | pest or weed control at 200 ppm [4]: ≥ 50% |
| CCN(C)/C=N/c1cc(C#N)c(Oc2cc(F)cc(F)c2)nc1C [P.41] |  |  | ≥ 50% |  |
| CCN(C)/C=N/c1ccc(OCCCC(C)C)nc1C [P.28] | ≥ 50% | ≥ 50% | ≥ 50% |  |

| SMILES | pest or weed control at 200 ppm [1] | pest or weed control at 200 ppm [2] | pest or weed control at 200 ppm [3] | other results |
| --- | --- | --- | --- | --- |
| CCN(C)/C=N/c1cnc(Oc2ccc(Cl)c(C(F)(F)F)c2)c(C)c1 [P.19] |  |  |  | pest or weed control at 200 ppm [4]: ≥ 50% |
| Cc1cc(/N=C/N(C)C)cnc1Oc1ccc(Cl)c(C(F)(F)F)c1 [P.09] | ≥ 50% |  |  | pest or weed control at 200 ppm [5]: ≥ 50% |
| CCN(C)/C=N/c1cc(Cl)c(OCCCC(C)C)nc1Br [P.64] | ≥ 50% | ≥ 50% | ≥ 50% | pest or weed control at 200 ppm [5]: ≥ 50% |
| CCN(C)/C=N/c1cc(Br)c(Oc2cccc3ccccc23)nc1C [P.76] | ≥ 50% | ≥ 50% | ≥ 50% |  |
| CCN(C)/C=N/c1ccc(OCCCC(C)C)nc1OC [P.58] |  | ≥ 50% | ≥ 50% |  |
| CCN(C)/C=N/c1cc(OC)c(Oc2ccc(Cl)c(C(F)(F)F)c2)nc1Cl [P.63] | ≥ 50% |  |  |  |
| CN(C)/C=N/c1ccc(Oc2ccc(Cl)cc2Cl)nc1 [P.03] |  |  |  | pest or weed control at 200 ppm [4]: ≥ 50% |
| CN(C)/C=N/c1ccc(Oc2ncc(C(F)(F)F)cc2Cl)nc1 [P.15] |  |  |  | pest or weed control at 200 ppm [4]: ≥ 50% |
| CCN(C)/C=N/c1cc(C#C[Si](C)(C)C)c(Oc2ccc(Cl)c(C(F)(F)F)c2)nc1C [P.31] |  | ≥ 50% | ≥ 50% |  |
| CCN(C)/C=N/c1cc(Br)c(OCCCC(C)C)nc1Br [P.69] | ≥ 50% |  | ≥ 50% | pest or weed control at 200 ppm [5]: ≥ 50% |
| CCN/C=N/c1cnc(Oc2ccc(Cl)c(C(F)(F)F)c2)c(C)c1 [P.08] |  |  |  | pest or weed control at 200 ppm [4]: ≥ 50%; pest or weed control at 200 ppm [5]: ≥ 50% |
| CCN(C)/C=N/c1cc(Cl)c(OCCCC(C)C)nc1C [P.46] |  |  |  | pest or weed control at 200 ppm [5]: ≥ 50% |
| COc1ccc(Oc2ccc(/N=C/N(C)C)cn2)cc1 [P.21] | ≥ 50% |  |  |  |
| CCN(C)/C=N/c1cc(Br)c(Oc2ccc3ncc(Br)cc3c2)nc1C [P.78] | ≥ 50% |  |  |  |
| C#CC(C)N(C)/C=N/c1cnc(Oc2ccc(Cl)c(C(F)(F)F)c2)c(C)c1 (stereo not drawn) [P.10] |  |  |  | preventive fungicidal activity, percent efficacy relative to untreated infected control [7]: at least 50% |
| Cc1cc(Oc2ccc(Cl)c(C(F)(F)F)c2)ncc1/N=C/N(C)C [P.06] |  |  |  | pest or weed control at 200 ppm [4]: ≥ 50% |
| CCN(C)/C=N/c1cc(OC)c(OCCCC(C)C)nc1Br [P.70] |  | ≥ 50% | ≥ 50% |  |
| CCN(C)/C=N/c1cnc(Oc2cccc(C(F)(F)F)c2)cc1C [P.36] |  |  | ≥ 50% |  |
| CCN(C)/C=N/c1cc(Br)c(Oc2cc(Cl)c3ncc(Br)cc3c2)nc1C [P.79] |  | ≥ 50% |  |  |
| CCN(C)/C=N/c1cc(OC)c(OCCCC(C)C)nc1Cl [P.73] | ≥ 50% | ≥ 50% | ≥ 50% | pest or weed control at 200 ppm [5]: ≥ 50% |
| CCN(C)/C=N/c1cc(Cl)c(OCCCC(C)C)nc1OC [P.59] | ≥ 50% | ≥ 50% | ≥ 50% |  |
